# Key:
# HEI-OC1 cells [1] = assay: RPM effects on apoptosis, MTS assay; assay type: cell-based
# Description: (§1) An auditory cell line, e.g., House-Ear Institute-organ of Corti 1 (HEI-OC1), that expresses auditory genes was used. HEI-OC1 cells were cultured under conditions of a temperature of 33° C. and a CO2 (10%) by adding 10% fetal bovine serum (FBS) and 25 U/ml interferon-gamma to a Dulbecco's modified Eagle's Medium (DMEM) including high concentrations of glutamine. At about 90% confluence of the cultured cells on a bottom surface of a plate, the cell density was maintained within an appropriate range by performing serial subcultures using 2.5% Trypsin-EDTA.
# Here, RPM was used as an inducer of autophagy and chloroquine (CQ) was used as an inhibitor of autophagy in terms of pretreatment and combination treatment.
# [2] = in vivo; cited from earlier work
# [3] = test system: auditory outer and inner hair cells; assay: Autophagy in cochlear hair cells, immunohistochemistry with LC3 antibodies; assay type: in vivo; conditions: GM treatment, rat cochleae
# Description: A total of 24 rats were classified into one group of 12 rats treated with 50 pM of rapamycin (RRM) and another group of 12 rats treated with 100 pM of RPM. […] To allow RPM to be well absorbed inside the tympanum, the rats were placed in a lateral decubitus position and stabilized. Meanwhile, rats of which right ears were treated with physiological saline were classified as a control group.
# To observe autophagy in the auditory outer hair cells, the cochleae of the rats of Example 1 were subjected to immunohistochemistry using microtubule-associated LC3 (Microtubule-associated protein 1A/1B-light chain 3) antibodies.
# HEI-OC1 cells [4] = assay: Autophagy in auditory cell line (LC3 staining, western blot, real-time quantitative PCR); assay type: cell-based; conditions: HEI-OC1 cells treated with GM
# Description: as §1
# To observe autophagy in the GM-treated auditory cells, the HEI-OC1 cells, which are the auditory cell line of Example 1-2, were subjected to immunohistochemistry using LC3 antibody, thereby staining autophagosomes, the expression of autophagy-related proteins, e.g., LC3, Beclin-1, and RAS-related GTP-binding proteins (Rab7) was confirmed according to the western blot, and the processes of autophagy were analyzed through real-time quantitative PCR.
compound,measurement,setting,value
"CCN(CC)CCCC(C)Nc1ccnc2cc(Cl)ccc12 (centres unmarked) [CQ, chloroquine]",apoptosis with GM and autophagy inhibitor,HEI-OC1 cells [1]; 5 mM GM with 25 μM CQ,more likely to be undergone the apoptosis
"CO[C@H]1C[C@@H]2CC[C@@H](C)[C@@](O)(O2)C(=O)C(=O)N2CCCC[C@H]2C(=O)O[C@H]([C@H](C)C[C@@H]2CC[C@@H](O)[C@H](OC)C2)CC(=O)[C@H](C)/C=C(\C)[C@@H](O)[C@@H](OC)C(=O)[C@H](C)C[C@H](C)/C=C/C=C/C=C/1C [RPM, rapamycin]",LD50 value (dose lethal to 50% of the population),[2],at least 2 g/kg
gentamicin [GM],autophagosomes having a double membrane in auditory outer and inner hair cells,[3],increase in autophagosomes
same,number of autophagosomes,HEI-OC1 cells [4],increased over time
same,HEI-OC1 cells undergone apoptosis,HEI-OC1 cells [1]; 5 mM of GM for 48 hours,about 25%

# Reference: patent US10016400B2, “Composition including rapamycin as active ingredient for preventing or treating hearing loss” (AJOU UNIVERSITY INDUSTRY—ACADEMIC COOPERATION FOUNDATION, priority 2014, dated 2018)
